Results reported in US20160151347A1, “PHARMACEUTICAL COMPOUNDS” (ISIS Innovation LTD, priority 2013, published 2016).

Tests used:
C57BL/6 mice = test system: C57BL/6 mice; parameters: species or system mouse; settings: in vivo
Source text: Automated non-invasive tail cuff plethysmography (Visitech 2000, Visitech, USA) was used to determine systolic blood pressure in response to HCQ in drinking water when compared to a control group (n=9/group). C57BL/6 mice were habituated for 5 days and then underwent measurements alternate day for 28 days. All measurements were taken in the morning at the same time of day. Twenty measurements were taken, the first 10 discarded and an average of valid recordings then taken for analysis.
We assessed safety by performing long term feeding of mice at 100 mg/kg daily for 28 days with HCQ (FIG. 9) and measuring blood pressure by tail cuff plethysmography.

[1] = test system: isolated guinea-pig sino-atrial node cells; experiment: Action potential recordings, current clamp in single isolated sino-atrial node cells; assay type: cell-based; settings: 1 μM
Protocol: Male guinea pigs (350-500 g) were sacrificed by concussion followed by cervical dislocation. The heart was rapidly excised and encouraged to beat several times in heparin-containing zero-Ca ^2+ modified Tyrode solution to prevent clotting (10 U/mL). The heart was mounted via the aorta on a constant pressure Langendorff system for retrograde perfusion, with solutions maintained at body temperature. After 2 minutes initial wash with zero Ca ^2+ solution (in mM: NaCl 136, KCI 5.4, NaHCO3 12, Na^+ pyruvate 1, NaH2PO4 1, MgCl2 1, EGTA 0.04, glucose 5; gassed with 95% O2/5% CO2 to maintain a pH of 7.4), perfusion was switched to re-circulation with collagenase solution (same as zero Ca^2+ but with 27 mg collagenase/50 mL—type II Worthington, Worthington Biochemical Corp., Lakewood, N.J., USA—0.1 mM CaCl2 and no EGTA).
Following 25 minutes enzymatic digestion, the right atrium, vena-cavae and pulmonary artery were dissected away from the ventricles. The right atrium was pinned in a Sylgard-coated bath, opened by anterior incision, and the SA node identified from anatomical features and tissue appearance. Under a binocular microscope, the SA node appears as a translucent, smooth, white structure in contrast to the thicker, pinker surrounding atrial tissue. The SA node was dissected into thin strips 2×5 mm) and stored in a high potassium medium (in mM: KCI 70, MgCl2 5, K^+ glutamine 5, taurine 20, EGTA 0.04, succinic acid 5, KH2PO4 20, HEPES 5, glucose 10; pH to 7.2 with KOH). Isolation of single SA node myocytes was carried out by gentle trituration.
For all single cell experiments, cells were transferred to a glass coverslip and superfused with oxygenated PSS at 34 ±1° C. using a gravity-fed system running at 2-3 mL/min. HCQ was applied via superfusion, with an electronic switching mechanism resulting in full solution exchange over a period of less than 20 seconds.
Perforated patch clamp recordings were carried out using electrodes pulled from filamented borosilicate glass capillary tubing (GC100 F, Harvard Apparatus Ltd, Kent) using a two-stage vertical puller (Narishige, Japan). […]
Micropipettes were mounted in a Perspex holder containing an Ag/AgCl wire and connected to a CV203BU headstage. All recordings were carried out using an AxoPatch 200B microelectrode system, digitised with a Digidata 1200 A-D converter, and recorded using PCIamp7 software at a sampling rate of 2 kHz (All products in this paragraph, Axon Instruments). […]
Action potentials were recorded from single guinea pig SA node cells under current clamp conditions using the AxoPatch200B microelectrode system and rate measured in Hz using spectral analysis. […]

male Sprague-Dawley rats = experiment: Rat in-vivo blood pressure and heart rate study (anaesthetised, carotid cannula)
Protocol: Data was acquired (200 Hz) in real time using a Biopac M100 system connected to a Dell P4 computer using AcqKnowledge software. Heart rate was triggered from the arterial blood pressure signal. Intravenous access was gained via the left external jugular vein using a 3 F cannula. After an equilibration period of at least 10 minutes, hydoxychloroquine (dissolved in sterile normal saline for injection and warmed to body temperature) was given as intravenous boluses over 30 seconds (1-30 mg/kg). […] Once a stable response had been reached, measurements were taken as an average over 30 seconds. On completion of the protocol, animals were euthanised with intraperitoneal injection of pentobarbitone. […] Data was acquired (200 Hz) in real time using a Biopac M100 system connected to a Dell P4 computer using AcqKnowledge software. Heart rate was triggered from the arterial blood pressure signal. Intravenous access was gained via the left external jugular vein using a 3 F cannula. After an equilibration period of at least 10 minutes, hydoxychloroquine (dissolved in sterile normal saline for injection and warmed to body temperature) was given as intravenous boluses over 30 seconds (1-30 mg/kg). […] Once a stable response had been reached, measurements were taken as an average over 30 seconds. On completion of the protocol, animals were euthanised with intraperitoneal injection of pentobarbitone.

[2] = test system: mouse atrial tissue preparations with intact sino-atrial node; experiment: Spontaneous beating rate of isolated mouse atrial preparations (tension transducer); assay type: cell-based; settings: for reduction in beating rate from control: n=7 (Example 5); for decrease in spontaneous frequency: 30 minute exposure, n=6 (Example 3)
Source text: Male CD-1 mice (7-9 weeks of age) were terminated by concussion followed by dislocation. The chest cavity was opened and heparinised solution (10 U/mL) applied around the heart to minimise clotting during dissection. The heart was rapidly excised and placed in warm, oxygenated modified Tyrode solution (PSS, in mM: NaCl 125, NaHCO3 25, KCl 5.4, NaH2PO4 1.2, MgCl2 1, glucose 5.5, CaCl2 1.8, pH to 7.4 with NaOH and oxygenated with 95% O2/5% CO2), the ventricular tissue discarded and the sino-atrial node region cleared of any overlying tissue.
Loops of thin suture were tied to the lateral edges of each atrium by directly knotting around a small area of the tissue, taking care to avoid contact with the node itself. One loop was anchored to a hook, which also provided oxygenation to the organ bath, and the other tied to a tension transducer. The preparation was hung in an organ bath filled with PSS, maintained at 37° C. Tension data was digitised using a PowerLabs bridge amplifier and recorded on Chart5 software (all from ADlnstruments, UK). Beating rate was calculated in real-time from the upstroke of the tension signal using the Chart5 Ratemeter function.
Spontaneously-beating atrial preparations were allowed to stabilise for 20 minutes, solution was exchanged for fresh, warmed, PSS and the preparation was again allowed to stabilise for 30 minutes. Drugs were added directly to the organ bath by pipette and allowed to equilibrate for 30 minutes before rate data was sampled.
Male CD-1 mice (7-9 weeks of age) were terminated by concussion followed by dislocation.
The chest cavity was opened and heparinised solution (10 U/mL) applied around the heart to minimise clotting during dissection. The heart was rapidly excised and placed in warm, oxygenated modified Tyrode solution (PSS, in mM: NaCl 125, NaHCO3 25, KCl 5.4, NaH2PO4 1.2, MgCl2 1, glucose 5.5, CaCl2 1.8, pH to 7.4 with NaOH and oxygenated with 95% O2/5% CO2), the ventricular tissue discarded and the sino-atrial node region cleared of any overlying tissue.

[3] = test system: human patient with sinus tachycardia; experiment: Case report: heart rate (ECG) of a human patient with sinus tachycardia and systemic lupus erythematosus
Source text: The heart rate of a mammal is defined as the number of heart beats per unit of time, usually heart beats per minute (bpm). The heart rate or number of heart beats per unit of time can be determined using methods known in the art. Such a method may involve the simple measurement of a mammal's pulse. Alternatively, heart rate may be measured through the use of an electrocardiograph (ECG), which is readily available to those skilled in the art. Such a method involves counting the number of QRS complexes in the ECG.
The patient was a person with no previous history of cardiac related disease.
Furthermore, the glyceryl trinitrate spray was used whenever angina symptoms were experienced.
In June 2009, the patient was diagnosed with systemic lupus erythematosus.
On Aug. […] On Aug. […] On Sep.

If current = If current recordings, perforated patch voltage clamp in single isolated sinoatrial node cells; assay type: cell-based, guinea pig; settings: for reduction in If current: 1 μM, 5 min exposure, n=7
[4] = 3 μM, 5 mins superfusion, n=4 cells

CCN(CCO)CCCC(C)Nc1ccnc2cc(Cl)ccc12 (centres unmarked) [hydroxychloroquine, 2-[{4-[(7-chloroquinolin-4-yl)amino]pentyl}(ethyl)amino]ethanol]
systolic blood pressure, baseline (C57BL/6 mice; C57BL/6, mouse): 109.7±2.89 mmHg | start weight (C57BL/6 mice; mouse): 27.72 ± 0.36 g | reduction in cellular beating rate (action potential firing rate) ([1]; 3 mins of exposure, n=6): 10±3% | lengthening in the time taken to reach 50% repolarisation ([1]; 5 min superfusion): 11+/-3% | reduction in the slope of spontaneous diastolic depolarization ([1]; 5 min superfusion): 25+/−3% | reduction in rate of spontaneous action potential generation (cellular beating rate) ([1]; 5 min superfusion, n=6, listed as HCQ): 17±6% | cumulative dose at which a significant transient reduction in heart rate is observed (male Sprague-Dawley rats; cumulative intravenous doses): ≥ 7.5 mg/kg | effect on blood pressure at low doses (male Sprague-Dawley rats; low intravenous doses (1-15 mg), n=6): without an effect on blood pressure | effect on blood pressure at very high doses (male Sprague-Dawley rats; very high intravenous doses): an effect on blood pressure (which recovers over time) | reduction in beating rate from control ([2]; 3 μM cumulative dose): 9±3% | decrease in spontaneous frequency ([2]; 3 μM): 11% | reduction in beating rate from control ([2]; 10 μM cumulative dose): 15±2% | decrease in spontaneous frequency ([2]; 10 μM): 20% | heart rate ([3]; 200 mg daily resumed Aug. 4, 2010, measured Sep. 16, 2010): 80-88 bpm | stable heart rate ([3]; 200 mg daily, August 2010 until December 2010): 70-85 bpm | heart rate ([3]; 200 mg to 400 mg Plaquenil per day, Atenolol completely ceased): 70-80 bpm | recorded heart rate ([3]; dose halved to 100 mg per day, ECG Aug. 3, 2010): 109 bpm | reduction in If current (If current; −80 mV voltage step): 20+/−4% | reduction in If current (If current; −100 mV step): 12+/−4% | maximal conductance of I(f) (If current; [4]): 85±6 % of control | voltage of half-activation (V50) and slope of conductance (If current; [4]): unchanged

CC(C)NCC(O)COc1ccc(CC(N)=O)cc1 (centres unmarked) [atenolol]
side effects experienced ([3]; patient on atenolol): tiredness associated with the onset of use of atenolol, low blood pressure and increased effects of Raynaud's syndrome | heart rate ([3]; patient treated with atenolol and a glyceryl trinitrate spray, about 118 bpm at rest before): 70-80 bpm
